# ChEMBL document CHEMBL3525924, “Cytochrome P450 3A-mediated microsomal biotransformation of 1α,25-dihydroxyvitamin D3 in mouse and human liver: drug-related induction and inhibition of catabolism” (Drug Metab Dispos, 2012)
# Columns and labels:
# Format in all cases: ADME
# [1] = Drug metabolism in CD1 mouse liver microsomes assessed as metabolite formation at 20 uM after 30 mins by LC/MS analysis in presence of NADPH and CYP1A1 inhibitor alpha-naphthoflavone; details: 0.5 h
# [2] = Drug level in dexamethasone treated CD1 mouse liver microsomes treated with 20 uM of 1alpha,25(OH)2D3 after 30 mins by LC/MS analysis in presence of NADPH relative to vehicle treated mouse; details: 0.5 h
# [3] = Drug metabolism in dexamethasone treated CD1 mouse liver microsomes assessed as metabolite formation at 20 uM after 30 mins by LC/MS analysis in presence of NADPH and CYP2B inhibitor orphenadrine; details: 0.5 h
# [4] = Drug metabolism in CD1 mouse liver microsomes assessed as metabolite formation at 20 uM after 30 mins by LC/MS analysis in presence of NADPH and CYP1A2 inhibitor furafyline; details: 0.5 h
# [5] = Drug metabolism in dexamethasone treated CD1 mouse liver microsomes assessed as metabolite formation at 20 uM after 30 mins by LC/MS analysis in presence of NADPH and CYP2E inhibitor di-ethyldithiocarbamate; details: 0.5 h
# [6] = Drug metabolism in dexamethasone treated CD1 mouse liver microsomes assessed as metabolite formation at 20 uM after 30 mins by LC/MS analysis in presence of NADPH and CYP2A inhibitor 8-methoxypsoralen; details: 0.5 h
# [7] = Drug metabolism in prednisone treated CD1 mouse liver microsomes assessed as metabolite formation at 20 uM after 30 mins by LC/MS analysis in presence of NADPH and CYP1A1 inhibitor alpha-naphthoflavone; details: 0.5 h
# Liver microsome [8] = assay: Drug metabolism in human liver microsomes assessed as IC50 for ritonavir-mediated inhibition of metabolite formation at 20 uM after 30 mins by LC/MS analysis; details: 0.5 h
# Liver microsome [9] = assay: Drug metabolism in human liver microsomes assessed as IC50 for docetaxel-mediated inhibition of metabolite formation at 20 uM after 30 mins by LC/MS analysis; details: 0.5 h
# [10] = Drug metabolism in prednisone treated CD1 mouse liver microsomes treated with 20 uM of 1alpha,25(OH)2D3 assessed as metabolite formation after 30 mins by LC/MS analysis in presence of NADPH; details: 0.5 h
# Liver microsome [11] = assay: Drug metabolism in human liver microsomes assessed as IC50 for tamoxifen-mediated inhibition of metabolite formation at 20 uM after 30 mins by LC/MS analysis; details: 0.5 h
# [12] = Drug metabolism in prednisone treated CD1 mouse liver microsomes assessed as metabolite formation at 20 uM after 30 mins by LC/MS analysis in presence of NADPH and CYP2E inhibitor di-ethyldithiocarbamate; details: 0.5 h
# [13] = Drug metabolism in CD1 mouse liver microsomes assessed as metabolite formation at 20 uM after 30 mins by LC/MS analysis in presence of NADPH and CYP2B inhibitor orphenadrine; details: 0.5 h
# Liver microsome [14] = assay: Drug metabolism in human liver microsomes assessed as IC50 for ketoconazole-mediated inhibition of metabolite formation at 20 uM after 30 mins by LC/MS analysis; details: 0.5 h
# [15] = Drug metabolism in prednisone treated CD1 mouse liver microsomes assessed as metabolite formation at 20 uM after 30 mins by LC/MS analysis in presence of NADPH and CYP2C inhibitor sulfaphenazole; details: 0.5 h
# [16] = Drug metabolism in prednisone treated CD1 mouse liver microsomes assessed as metabolite formation at 20 uM after 30 mins by LC/MS analysis in presence of NADPH and CYP2B inhibitor orphenadrine; details: 0.5 h
# [17] = Drug metabolism in dexamethasone treated CD1 mouse liver microsomes assessed as metabolite formation at 20 uM after 30 mins by LC/MS analysis in presence of NADPH and CYP1A2 inhibitor furafyline; details: 0.5 h
# [18] = Drug metabolism in dexamethasone treated CD1 mouse liver microsomes assessed as metabolite formation at 20 uM after 30 mins by LC/MS analysis in presence of NADPH and CYP2C inhibitor sulfaphenazole; details: 0.5 h
# [19] = Drug metabolism in prednisone treated CD1 mouse liver microsomes assessed as metabolite formation at 20 uM after 30 mins by LC/MS analysis in presence of NADPH and CYP1A2 inhibitor furafyline; details: 0.5 h
# [20] = Drug metabolism in dexamethasone treated CD1 mouse liver microsomes assessed as metabolite formation at 20 uM after 30 mins by LC/MS analysis in presence of NADPH and CYP1A1 inhibitor alpha-naphthoflavone; details: 0.5 h
# [21] = Drug metabolism in CD1 mouse liver microsomes assessed as metabolite formation at 20 uM after 30 mins by LC/MS analysis in presence of NADPH and CYP2E inhibitor di-ethyldithiocarbamate; details: 0.5 h
# Liver microsome [22] = assay: Drug level in human liver microsomes assessed as retention time treated with 20 uM of 1alpha,25(OH)2D3 after 30 mins by LC/MS analysis in presence of NADPH; details: 0.5 h
# [23] = Drug metabolism in CD1 mouse liver microsomes assessed as metabolite formation at 20 uM after 30 mins by LC/MS analysis in presence of NADPH and CYP2A inhibitor 8-methoxypsoralen; details: 0.5 h
# [24] = Drug metabolism in prednisone treated CD1 mouse liver microsomes assessed as metabolite formation at 20 uM after 30 mins by LC/MS analysis in presence of NADPH and CYP2D inhibitor quinine; details: 0.5 h
# Liver microsome [25] = assay: Drug metabolism in human liver microsomes assessed as IC50 for clarithromycin-mediated inhibition of metabolite formation at 20 uM after 30 mins by LC/MS analysis; details: 0.5 h
# [26] = Drug metabolism in CD1 mouse liver microsomes assessed as metabolite formation at 20 uM after 30 mins by LC/MS analysis in presence of NADPH and CYP2C inhibitor sulfaphenazole; details: 0.5 h
# [27] = Drug metabolism in CD1 mouse liver microsomes assessed as metabolite formation at 20 uM after 30 mins by LC/MS analysis in presence of NADPH and CYP2D inhibitor quinine; details: 0.5 h
# [28] = Drug metabolism in dexamethasone treated CD1 mouse liver microsomes assessed as metabolite formation at 20 uM after 30 mins by LC/MS analysis in presence of NADPH and CYP2D inhibitor quinine; details: 0.5 h
# [29] = Drug metabolism in prednisone treated CD1 mouse liver microsomes assessed as metabolite formation at 20 uM after 30 mins by LC/MS analysis in presence of NADPH and CYP2A inhibitor 8-methoxypsoralen; details: 0.5 h
# Cytochrome P450 3A4 [30] = target: T1, Cytochrome P450 3A4 (Homo sapiens, UniProt P08684); assay: Drug metabolism assessed as 10 uM ritonavir-mediated inhibition of human CYP3A4-mediated metabolite formation by LC/MS analysis; details: recombinant enzyme
# Cytochrome P450 3A4 [31] = target: T1, Cytochrome P450 3A4; assay: Drug metabolism assessed as 100 uM tamoxifen-mediated inhibition of human CYP3A4-mediated metabolite formation by LC/MS analysis; details: recombinant enzyme
# Cytochrome P450 3A4 [32] = target: T1, Cytochrome P450 3A4; assay: Drug metabolism assessed as 1 uM ketoconazole-mediated inhibition of human CYP3A4-mediated metabolite formation by LC/MS analysis; details: recombinant enzyme
# Cytochrome P450 3A4 [33] = target: T1, Cytochrome P450 3A4; assay: Drug metabolism assessed as 100 uM troleandromycin-mediated inhibition of human CYP3A4-mediated metabolite formation by LC/MS analysis; details: recombinant enzyme
# T1 sequence (P08684 whole entry): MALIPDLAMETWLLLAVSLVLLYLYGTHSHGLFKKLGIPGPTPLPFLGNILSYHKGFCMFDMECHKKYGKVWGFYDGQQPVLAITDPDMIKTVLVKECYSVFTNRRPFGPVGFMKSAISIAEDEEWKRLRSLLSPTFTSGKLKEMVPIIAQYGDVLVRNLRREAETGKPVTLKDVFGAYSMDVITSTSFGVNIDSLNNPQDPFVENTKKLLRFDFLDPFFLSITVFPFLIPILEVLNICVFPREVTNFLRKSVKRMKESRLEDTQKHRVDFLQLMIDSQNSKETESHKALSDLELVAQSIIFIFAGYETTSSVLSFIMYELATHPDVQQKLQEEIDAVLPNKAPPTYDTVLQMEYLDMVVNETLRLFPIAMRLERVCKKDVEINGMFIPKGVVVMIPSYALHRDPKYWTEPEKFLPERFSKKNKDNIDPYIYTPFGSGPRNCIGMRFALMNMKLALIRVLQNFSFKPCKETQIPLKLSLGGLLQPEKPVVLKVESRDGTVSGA
Structure (SMILES),Drug metabolism [1],Drug metabolism [3],Drug metabolism [4],Drug metabolism [5],Drug metabolism [6],Drug metabolism [7],IC50 (Liver microsome [8]) [nM],IC50 (Liver microsome [9]) [nM],Drug metabolism [10],IC50 (Liver microsome [11]) [nM],Drug metabolism [12],Drug metabolism [13],IC50 (Liver microsome [14]) [nM],Drug metabolism [15],Drug metabolism [16],Drug metabolism [17],Drug metabolism [18],Drug metabolism [19],Drug metabolism [20],Drug metabolism [21],also measured
C=C1/C(=C\C=C2/CCC[C@]3(C)[C@@H]([C@H](C)CC[C@@H](O)C(C)(C)O)CC[C@@H]23)C[C@@H](O)C[C@@H]1O,metabolite_detected,metabolite_detected,metabolite_detected,metabolite_detected,metabolite_detected,metabolite_detected,28,77,metabolite_detected,> 40000,metabolite_detected,metabolite_detected,42,metabolite_detected,metabolite_detected,metabolite_detected,metabolite_detected,metabolite_detected,metabolite_detected,metabolite_detected,fold change (FC) [2]: 17; Retention_time (Liver microsome [22]): 8.8 min; Drug metabolism [23]: metabolite_detected; Drug metabolism [24]: metabolite_detected; IC50 (Liver microsome [25]): > 30000 nM; Drug metabolism [26]: metabolite_detected; Drug metabolism [27]: metabolite_detected; Drug metabolism [28]: metabolite_detected; Drug metabolism [29]: metabolite_detected
C=C1/C(=C\C=C2/CCC[C@]3(C)[C@@H]([C@H](C)C[C@H](O)CC(C)(C)O)CC[C@@H]23)C[C@@H](O)C[C@@H]1O,metabolite_detected,metabolite_detected,metabolite_detected,metabolite_detected,metabolite_detected,metabolite_detected,13,38,metabolite_detected,> 40000,metabolite_detected,metabolite_detected,40,metabolite_detected,metabolite_detected,metabolite_detected,metabolite_detected,metabolite_detected,metabolite_detected,metabolite_detected,fold change (FC) [2]: 43; Retention_time (Liver microsome [22]): 8.5 min; Drug metabolism [23]: metabolite_detected; Drug metabolism [24]: metabolite_detected; IC50 (Liver microsome [25]): > 30000 nM; Drug metabolism [26]: metabolite_detected; Drug metabolism [27]: metabolite_detected; Drug metabolism [28]: metabolite_detected; Drug metabolism [29]: metabolite_detected
C=C1/C(=C\C=C2/CCC[C@]3(C)[C@@H]([C@H](C)C[C@@H](O)CC(C)(C)O)CC[C@@H]23)C[C@@H](O)C[C@@H]1O,metabolite_detected,metabolite_detected,metabolite_detected,metabolite_detected,metabolite_detected,metabolite_detected,16,38,metabolite_detected,> 40000,metabolite_detected,metabolite_detected,32,metabolite_detected,metabolite_detected,metabolite_detected,metabolite_detected,metabolite_detected,metabolite_detected,metabolite_detected,Drug metabolism [2]: metabolite_detected; Retention_time (Liver microsome [22]): 9.7 min; Drug metabolism [23]: metabolite_detected; Drug metabolism [24]: metabolite_detected; IC50 (Liver microsome [25]): > 30000 nM; Drug metabolism [26]: metabolite_detected; Drug metabolism [27]: metabolite_detected; Drug metabolism [28]: metabolite_detected; Drug metabolism [29]: metabolite_detected
C=C1/C(=C\C=C2/CCC[C@]3(C)[C@@H]([C@H](C)CC[C@H](O)C(C)(C)O)CC[C@@H]23)C[C@@H](O)C[C@@H]1O,metabolite_detected,metabolite_detected,metabolite_detected,metabolite_detected,metabolite_detected,metabolite_detected,8,12,metabolite_detected,> 40000,metabolite_detected,metabolite_detected,565,metabolite_detected,metabolite_detected,metabolite_detected,metabolite_detected,metabolite_detected,metabolite_detected,metabolite_detected,Drug metabolism [2]: metabolite_detected; Retention_time (Liver microsome [22]): 9 min; Drug metabolism [23]: metabolite_detected; Drug metabolism [24]: metabolite_detected; IC50 (Liver microsome [25]): > 30000 nM; Drug metabolism [26]: metabolite_detected; Drug metabolism [27]: metabolite_detected; Drug metabolism [28]: metabolite_detected; Drug metabolism [29]: metabolite_detected
Cc1nnc2n1-c1ccc(Cl)cc1C(c1ccccc1Cl)=NC2 [TRIAZOLAM],,,,,,,,,,,,,,,,,,,,,Drug metabolism (Cytochrome P450 3A4 [30]): metabolite_not_detected; Drug metabolism (Cytochrome P450 3A4 [31]): metabolite_not_detected; Drug metabolism (Cytochrome P450 3A4 [32]): metabolite_not_detected; Drug metabolism (Cytochrome P450 3A4 [33]): metabolite_not_detected
